From patent publication US20260216057A1, “PHARMACEUTICAL COMPOSITIONS FOR HERPES VIRUS” (priority 2022, published 2026)

Experiments:
[1] = Injection site observation in Example 7 Compound 1 PK studies; type: in vivo, rat, monkey, dog; settings: SC Compound 1 depot formulations, Example 7, 3 species
Method: The suspension was then dosed to male SD rats at 10 mg/kg according to the Example 2 animal dosing method. The suspension was then dosed to male cyno monkeys at 10 mg/kg according to the Example 3 animal dosing method. The suspension was then dosed to male non-naïve beagle dogs at 10 mg/kg according to the Example 4 animal dosing method.

[2] = Example 13: Compound 1 IV PK study in rat; type: in vivo, male Sprague Dawley rats; settings: male, Sprague Dawley, plasma, 1 mg/kg, read-out: Rat t1/2 (converted)
Method: The LC-MS methodology and conditions used to analyse Compound 1 in plasma samples from the intra-venous injection PK studies (Example 13) are described in Tables 5 to 7. A 0.2 mg/mL solution of Compound 1 in 10% NMP, 10% Solutol HS15 and 80% Saline was prepared as follows: • 1) A stock solution of Compound 1 in NMP was prepared. • 2) An equal volume of the Compound 1 stock solution and Solutol HS15 were combined and mixed. • 3) The above solution was diluted with normal saline to reach the target concentration. The final formulation was a clear solution. Male Sprague Dawley (SD) rats with 230-250 g body weight, ages 6-8 weeks, were used for the rat pharmacokinetic study. The animals had free access to food and water. The Compound 1 solution described above was administered via intravenous injection to animals (n=3) to achieve a 1.0 mg/kg dose. At each time point, approximately 200 μL whole blood was collected in a K2EDTA tubes. Blood samples were put on ice and centrifuged at 2000 g for 5 min to obtain a plasma sample within 15 minutes. Plasma samples were stored at approximately −70° C. until analyzed by LC-MS according to the method described above.

[3] = Example 17: Compound 1 (Form C) microsuspension and nanosuspension SC and IM PK study in rat; type: in vivo, male Sprague Dawley rats; settings: for prolonged exposure for (length of the study): 20 mg/animal (~80 mg/kg), micro- and nano-suspensions (Form C), both formulations
Method: The LC-MS methodology and conditions used to analyse Compound 1 in rat plasma samples from the PK study described in Example 17 are given in Table 10.
An aqueous microsuspension of crystalline Compound 1 free form (crystalline Form C) in a 20 mg/mL PVP K30, 10 mg/mL poloxamer 188 and 50 mg/mL mannitol vehicle at a concentration of 200 mg/mL was prepared as follows: • 1) Crystalline Compound 1 (Form C) was jet milled to obtain microparticles (Dv90<10 μm). • 2) Jet milled material was dispersed in 20 mg/ml PVP K30+10 mg/ml Poloxamer 188+50 mg/ml mannitol to obtain a homogeneous suspension. • 3) The suspension was subjected to freeze drying to obtain a freeze-dried powder. • 4) Appropriate amounts of freeze-dried powder (based on assay) were weighed and added to water to obtain a 200 mg/ml suspension. • 5) The mixture was stirred for 5 minutes. • 6) The final dosing formulation was a homogenous white cloudy suspension.
An aqueous nano-suspension of crystalline Compound 1 free form (crystalline Form C) in a 20 mg/mL PVP K30, 10 mg/mL poloxamer 188 and 50 mg/mL mannitol vehicle at a concentration of 200 mg/mL was prepared as follows: • 1) 20 mg/mL crystalline Compound 1 (Form C) was dispersed into a solution of 2 mg/mL PVP K30 1.0 mg/mL poloxamer 188 and 5 mg/mL mannitol • 2) The suspension was subjected to high pressure homogenizer until the size was around 1 μm. • 3) After particle size reduction, the suspension was subjected to freeze drying to obtain a freeze-dried powder. • 4) The freeze-dried powder was reconstituted with water to obtain a 100 mg/mL suspension. • 5) The suspension was wet milled (10:1 0.1 mm zirconium oxide milling beads: Compound 1) at 900 rpm for 600 minutes to reduce particle size to nanosized particles (Dv90<200 nm). • 6) This nanosuspension was subjected to freeze drying to obtain a freeze-dried powder. • 7) Appropriate amounts of freeze-dried powder (based on assay) were weighed and added to water to obtain a 200 mg/ml suspension. • 8) The mixture was stirred for 10 minutes. • 9) The final dosing formulation was a homogenous white cloudy suspension.
Male Sprague Dawley (SD) rats with ~230-250 g body weight (aged 6-8 weeks) were used for the pharmacokinetic study. The animals had free access to food and water. The Compound 1 solution described above was administered via sub-cutaneous or intra-muscular injection to each animal group (n=3) with a dosing volume of 0.1 mL/animal (~0.4 mL/kg) to achieve a 20 mg/animal dose (~80 mg/kg).
At each time point, approximately 150 μL whole blood was collected in a K2EDTA tube via the jugular vein. Blood samples were put on ice and centrifuged at 2000 g for 5 min to obtain a plasma sample within 15 minutes. Plasma samples were stored at approximately −70° C. until analyzed by LC-MS.

SMILES: Cc1nc(N2CCCN(c3ccc(-c4cc(F)ccc4F)cc3)C2=O)sc1S(N)(=O)=O [Compound 1, 2-(3-(2′,5′-difluoro-[1,1′-biphenyl]-4-yl)-2-oxotetrahydropyrimidin-1(2H)-yl)-4-methylthiazole-5-sulfonamide]
- adverse reactions at the injection sites [1]: no adverse reactions observed
- half-life [2]: 22 h
- plasma levels, intramuscular compared with subcutaneous injection ([3]; 20 mg/animal, micro- and nano-suspensions): plasma levels were higher than those achieved by these formulations when administered by subcutaneous injection
- plasma levels, nanosuspension compared with microsuspension ([3]; intramuscular, 20 mg/animal): nanosuspension provided higher plasma levels than the microsuspension
- prolonged exposure for (length of the study) ([3]; intramuscular): at least 600 hours
- adverse reactions at the injection sites ([3]; intramuscular, micro- and nano-suspensions): no adverse reactions observed
- prolonged exposure for (length of the study) ([3]; subcutaneous): at least 600 hours
- plasma levels, nanosuspension compared with microsuspension ([3]; subcutaneous, 20 mg/animal, throughout the test period): nanosuspension provided higher plasma levels than the microsuspension
- adverse reactions at the injection sites ([3]; subcutaneous, micro- and nano-suspensions): no adverse reactions observed
